Assay results reported in patent US11976072B2, “Diacylglycerol kinase modulating compounds” (priority 2021, dated 2024).
Like-named read-outs stand apart in the source and are kept apart here.

Columns and labels:
human DGKα = human DGKα (Homo sapiens, UniProt P23743); assay: DGKα Biochemical Activity Assay (ADP-Glo); conditions: recombinant DGKα 1 nM, 100 μM ATP, 18:1 DAG/POPS/octylglucoside micelles, 1 hour at 25° C.; geometric mean; read-out: HTBS DGKa 1X ATP KM IC50;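 further: luminescent detection of ADP produced as DGKα phosphorylates DAG to phosphatidic acid, IC50 from four-parameter nonlinear curve fit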
Source text: Alternatively, the enzymatic activity of human DGKα was monitored in a biochemical assay in the presence or absence of compounds and using micelles containing 18:1 Diacylglycerol (DAG), 16:0-18:1 PS (POPS) and Octylglucoside as substrate. DGKα activity led to conversion of DAG and ATP to Phosphatidic Acid (PA) and ADP. Levels of ADP were monitored by bioluminescence using the ADP-Glo Kinase Assay (Promega) and were indicative of DGKα activity.
Recombinant DGKα (Carna Biosciences) in assay buffer (5 μL in 50 mM MOPS [3-(N-morpholino) propanesulfonic acid], pH 7.2; 0.0025% Triton X-100; 1 mM dithiothreitol; 5 mM MgCl2, 200 μM ATP) was added to the compound-containing plate and was incubated for 15 minutes at 25° C. […] The reaction mixture was incubated at 25° C. for 1 hour. ADP-Glo Reagent (10 μL, 10 mM Mg added) provided by the kit was added to each well and incubated at 25° C. for 40 minutes. Then, 20 μL of Kinase Detection Reagent was added and incubated at 25° C. for 40 minutes. Luciferase activity of each well was measured via luminescence on an Envision plate reader (PerkinElmer).
Least squares curve fittings were performed using a four-parameter variable slope nonlinear regression model. […] IC50 values from multiple experiments were averaged by geometric mean and the standard deviation was calculated.

[1] = tested on: Jurkat NFκB-luciferase cells; assay: Jurkat NFκB-Luciferase Assay; type: cell-based; conditions: Homo sapiens
Procedure, shortened: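 Jurkat NFκB-luciferase reporter cells at 1 million cells/ml in RPMI with 10% FBS were added to antibody-coated, compound-containing wells. Luciferase activity read by One-Glo Ex luminescence 7 minutes after reagent addition.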

[2] = Jurkat NFκB-luciferase cells activated with anti-CD3 antibody (OKT3), 2.5 hrs at 37° C., geometric mean, read-out: DGK NFKb Luciferase EC50
[3] = Jurkat, […], read-out: DGK NFKb Luciferase EC50 (nM)

Sequence of human DGKα (P23743 whole entry): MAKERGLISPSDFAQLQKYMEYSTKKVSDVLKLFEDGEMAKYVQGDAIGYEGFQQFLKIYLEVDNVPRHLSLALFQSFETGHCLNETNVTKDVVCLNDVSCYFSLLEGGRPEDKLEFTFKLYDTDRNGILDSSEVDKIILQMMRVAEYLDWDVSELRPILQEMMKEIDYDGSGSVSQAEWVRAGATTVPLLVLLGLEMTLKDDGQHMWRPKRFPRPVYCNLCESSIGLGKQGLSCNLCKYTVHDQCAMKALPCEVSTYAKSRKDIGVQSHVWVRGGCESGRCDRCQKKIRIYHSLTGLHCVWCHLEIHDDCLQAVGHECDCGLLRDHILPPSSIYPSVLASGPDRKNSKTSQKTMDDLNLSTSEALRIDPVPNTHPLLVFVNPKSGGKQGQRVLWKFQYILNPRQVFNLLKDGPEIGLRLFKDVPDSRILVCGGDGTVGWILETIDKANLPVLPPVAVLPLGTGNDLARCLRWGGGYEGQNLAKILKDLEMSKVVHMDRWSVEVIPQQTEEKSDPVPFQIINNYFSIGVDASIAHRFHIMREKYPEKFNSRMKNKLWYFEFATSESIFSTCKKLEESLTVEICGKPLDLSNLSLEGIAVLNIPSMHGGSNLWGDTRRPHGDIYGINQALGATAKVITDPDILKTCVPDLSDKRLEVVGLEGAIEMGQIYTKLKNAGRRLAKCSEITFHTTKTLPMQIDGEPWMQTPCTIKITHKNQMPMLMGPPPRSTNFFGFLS

| SMILES | IC50 (human DGKα) [µM] | EC50 [1, 2] [nM] | EC50 [1, 3] [nM] |
| --- | --- | --- | --- |
| Cc1nnc2nc(N3CCCc4c(N5CCC(C)(F)CC5)cccc43)c3c(F)cccc3n12 [Example 156, 6-fluoro-5-[5-(4-fluoro-4-methyl-1-piperidyl)-3,4-dihydro-2H-quinolin-1-yl]-1-methyl-[1,2,4]triazolo[4,3-a]quinazoline] | 0.0402 | 1.02 |  |
| Cc1nnc2nc(N3CCCc4c(N5CCC(F)(F)CC5)cccc43)c3c(F)cccc3n12 [Example 157, 5-[5-(4,4-difluoro-1-piperidyl)-3,4-dihydro-2H-quinolin-1-yl]-6-fluoro-1-methyl-[1,2,4]triazolo[4,3-a]quinazoline] | 0.672 | 8.23 |  |
| Cc1nnc2nc(N3CCCc4c(N5CCN(C(=O)C(F)F)CC5)cccc43)c3c(F)cccc3n12 [Example 158, 2,2-difluoro-1-[4-[1-(6-fluoro-1-methyl-[1,2,4]triazolo[4,3-a]quinazolin-5-yl)-3,4-dihydro-2H-quinolin-5-yl]piperazin-1-yl]ethanone] | 0.281 | 49.3 |  |
| Cc1nnc2nc(N3CCCc4c(N5CCN(C(=O)C(F)(F)F)CC5)cccc43)c3c(F)cccc3n12 [Example 159] | 0.333 | 16.5 |  |
| Cc1nnc2nc(N3CCCc4c(N5CCN(S(C)(=O)=O)CC5)cccc43)c3c(F)cccc3n12 [Example 160, 6-fluoro-1-methyl-5-[5-(4-methylsulfonylpiperazin-1-yl)-3,4-dihydro-2H-quinolin-1-yl]-[1,2,4]triazolo[4,3-a]quinazoline] | 0.0749 | 28.6 |  |
| Cc1nnc2nc(N3CCCc4c(N5CCN(C(=O)OC(C)(C)C)CC5)cccc43)c3c(F)cccc3n12 [Example 161, tert-butyl 4-[1-(6-fluoro-1-methyl-[1,2,4]triazolo[4,3-a]quinazolin-5-yl)-3,4-dihydro-2H-quinolin-5-yl]piperazine-1-carboxylate] | 0.0871 |  | 5.49 |
| Cc1nnc2nc(N3CCN(C)Cc4c(C#CC(C)(C)C(F)(F)F)cccc43)c3c(F)cccc3n12 [Example 162, 6-fluoro-1-methyl-5-[4-methyl-6-(4,4,4-trifluoro-3,3-dimethyl-but-1-ynyl)-3,5-dihydro-2H-1,4-benzodiazepin-1-yl]-[1,2,4]triazolo[4,3-a]quinazoline] | 0.015 | 3.33 |  |
| Cc1nnc2nc(N3CCN(C)Cc4c(C#CC5(C(F)(F)F)CC5)cccc43)c3c(F)cccc3n12 [Example 164, 6-fluoro-1-methyl-5-[4-methyl-6-[2-[1-(trifluoromethyl)cyclopropyl]ethynyl]-3,5-dihydro-2H-1,4-benzodiazepin-1-yl]-[1,2,4]triazolo[4,3-a]quinazoline] | 0.013 | 3.63 |  |
| Cc1nnc2nc(N3CCN(C)Cc4c(C#CC5(C)CC5)cccc43)c3c(F)cccc3n12 [Example 165, 6-fluoro-1-methyl-5-[4-methyl-6-[2-(1-methylcyclopropyl)ethynyl]-3,5-dihydro-2H-1,4-benzodiazepin-1-yl]-[1,2,4]triazolo[4,3-a]quinazoline] | 0.0076 | 5.35 |  |
| Cc1nnc2nc(N3CCN(C)Cc4c(C#CC5(C(C)(F)F)CC5)cccc43)c3c(F)cccc3n12 [Example 166, 5-[6-[2-[1-(1,1-difluoroethyl)cyclopropyl]ethynyl]-4-methyl-3,5-dihydro-2H-1,4-benzodiazepin-1-yl]-6-fluoro-1-methyl-[1,2,4]triazolo[4,3-a]quinazoline] | 0.0174 | 15.8 |  |
| Cc1nnc2nc(N3CCCOc4c(C#CC5CC5)cncc43)c3c(F)c(F)ccc3n12 [Example 167, 9-(2-cyclopropylethynyl)-5-(6,7-difluoro-1-methyl-[1,2,4]triazolo[4,3-a]quinazolin-5-yl)-3,4-dihydro-2H-pyrido[4,3-b][1,4]oxazepine] | 0.018 | 5.84 |  |
| Cc1nnc2nc(N3CCN(C)Cc4c(C#CC(C)(C)C(F)(F)F)cccc43)c3c(F)c(F)ccc3n12 [Example 168, 6,7-difluoro-1-methyl-5-[4-methyl-6-(4,4,4-trifluoro-3,3-dimethyl-but-1-ynyl)-3,5-dihydro-2H-1,4-benzodiazepin-1-yl]-[1,2,4]triazolo[4,3-a]quinazoline] | 0.0104 | 5.41 |  |
| Cc1nnc2nc(N3CCN(C)Cc4c(C#CC5(C(F)(F)F)CC5)cccc43)c3c(F)c(F)ccc3n12 [Example 169, 6,7-difluoro-1-methyl-5-[4-methyl-6-[2-[1-(trifluoromethyl)cyclopropyl]ethynyl]-3,5-dihydro-2H-1,4-benzodiazepin-1-yl]-[1,2,4]triazolo[4,3-a]quinazoline] | 0.0073 | 4.39 |  |
| Cc1nnc2nc(N3CCN(C)Cc4c(C#CC(C)(C)O)cccc43)c3cc(F)ccc3n12 [Example 170, 4-[1-(7-fluoro-1-methyl-[1,2,4]triazolo[4,3-a]quinazolin-5-yl)-4-methyl-3,5-dihydro-2H-1,4-benzodiazepin-6-yl]-2-methyl-but-3-yn-2-ol] | 0.051 |  | 358 |
| Cc1nnc2nc(N3CCN(C)Cc4c(C#CC(C)(C)C(F)(F)F)cccc43)c3cc(F)ccc3n12 [Example 171, 7-fluoro-1-methyl-5-[4-methyl-6-(4,4,4-trifluoro-3,3-dimethyl-but-1-ynyl)-3,5-dihydro-2H-1,4-benzodiazepin-1-yl]-[1,2,4]triazolo[4,3-a]quinazoline] | 0.0148 | 7.36 |  |
| Cc1nnc2nc(N3CCN(C)Cc4c(C#CC5(C(F)(F)F)CC5)cccc43)c3cc(F)ccc3n12 [Example 172, 7-fluoro-1-methyl-5-[4-methyl-6-[2-[1-(trifluoromethyl)cyclopropyl]ethynyl]-3,5-dihydro-2H-1,4-benzodiazepin-1-yl]-[1,2,4]triazolo[4,3-a]quinazoline] | 0.00877 | 3.23 |  |
| Cc1nnc2nc(N3CCCOc4c(C#CC5(C)CC5)cncc43)c3cc(F)ccc3n12 [Example 173, 5-(7-fluoro-1-methyl-[1,2,4]triazolo[4,3-a]quinazolin-5-yl)-9-[2-(1-methylcyclopropyl)ethynyl]-3,4-dihydro-2H-pyrido[4,3-b][1,4]oxazepine] | 0.0172 | 2.03 |  |
| CC(C)(O)C#Cc1cccc2c1CCCN2c1nc2nncn2c2ccccc12 [Example 174, 2-methyl-4-[1-([1,2,4]triazolo[4,3-a]quinazolin-5-yl)-3,4-dihydro-2H-quinolin-5-yl]but-3-yn-2-ol] | 0.0267 |  | 12 |
| FC(F)(F)C1(C#Cc2cccc3c2CCCN3c2nc3nncn3c3ccccc23)CC1 [Example 175, 5-[5-[2-[1-(trifluoromethyl)cyclopropyl]ethynyl]-3,4-dihydro-2H-quinolin-1-yl]-[1,2,4]triazolo[4,3-a]quinazoline] | 0.11 | 1.74 |  |
| Cc1nnc2nc(N3CCCCc4c(C#CC(C)(C)NC(=O)C5(C(F)(F)F)CC5)cccc43)c3c(F)c(F)ccc3n12 [Example 176] | 0.0124 | 6.67 |  |
| Cc1nnc2nc(N3CCCCc4c(C#CC5(NC(=O)C6(C(F)(F)F)CC6)CC5)cccc43)c3c(F)cccc3n12 [Example 177, N-(1-((1-(6-Fluoro-1-methyl-[1,2,4]triazolo[4,3-a]quinazolin-5-yl)-2,3,4,5-tetrahydro-1H-benzo[b]azepin-6-yl)ethynyl)cyclopropyl)-1-(trifluoromethyl)cyclopropane-1-carboxamide] | 0.00674 | 23.4 |  |
| Cc1nnc2nc(N3CCOCc4c(C#CC(C)(C)NS(=O)(=O)C5(C(F)F)CC5)cccc43)c3c(F)cccc3n12 [Example 178, 1-(Difluoromethyl)-N-[3-[1-(6-fluoro-1-methyl-[1,2,4]triazolo[4,3-a]quinazolin-5-yl)-3,5-dihydro-2H-4,1-benzoxazepin-6-yl]-1,1-dimethyl-prop-2-ynyl]cyclopropanesulfonamide] | 0.0449 | 10.2 |  |
| Cc1nc(C#Cc2cccc3c2COCCN3c2nc3nnc(C)n3c3cccc(F)c23)co1 [Example 179, 1-(6-Fluoro-1-methyl-[1,2,4]triazolo[4,3-a]quinazolin-5-yl)-6-[2-(2-methyloxazol-4-yl)ethynyl]-3,5-dihydro-2H-4,1-benzoxazepine] | 0.00959 | 9.13 |  |
| Cc1nnc2nc(N3CCOCc4c(C#CC(C)(C)NC(=O)C(C)(C)C(C)(F)F)cccc43)c3c(F)cccc3n12 [Example 180, 3,3-Difluoro-N-[3-[1-(6-fluoro-1-methyl-[1,2,4]triazolo[4,3-a]quinazolin-5-yl)-3,5-dihydro-2H-4,1-benzoxazepin-6-yl]-1,1-dimethyl-prop-2-ynyl]-2,2-dimethyl-butanamide] | 0.00512 | 13.5 |  |
| Cc1nnc2nc(N3CCOCc4c(C#CC(C)(C)NC(=O)C5(C(C)(F)F)CC5)cccc43)c3c(F)cccc3n12 [Example 181, 1-(1,1-Difluoroethyl)-N-[3-[1-(6-fluoro-1-methyl-[1,2,4]triazolo[4,3-a]quinazolin-5-yl)-3,5-dihydro-2H-4,1-benzoxazepin-6-yl]-1,1-dimethyl-prop-2-ynyl]cyclopropanecarboxamide] | 0.00406 | 12.4 |  |
| Cc1nnc2nc(N3CCOCc4c(C#CC(C)(C)NC(=O)C5(C(F)(F)F)CC5)cccc43)c3c(F)c(F)ccc3n12 [Example 182, N-[3-[1-(6,7-Difluoro-1-methyl-[1,2,4]triazolo[4,3-a]quinazolin-5-yl)-3,5-dihydro-2H-4,1-benzoxazepin-6-yl]-1,1-dimethyl-prop-2-ynyl]-1-(trifluoromethyl)cyclopropanecarboxamide] | 0.00241 | 4.27 |  |
